Experimental data: PubChem BioAssay (NCI)
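Cultured in 96-well plates, cells were exposed to test compound for 48 hours across five concentrations. GI50 marks 50% less growth. The concentration for full growth arrest is given as TGI.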

Legend:
Assay in all cases: inhibition of tumour cell growth, NCI panel, 48 h
[1] = test system: A498 renal
[2] = test system: OVCAR-8 ovarian
[3] = test system: SK-OV-3 ovarian
[4] = test system: A549 NSCLC
[5] = test system: UACC-257 melanoma
[6] = test system: OVCAR-5 ovarian
[7] = test system: SNB-19 CNS
[8] = test system: RXF 393 renal
[9] = test system: NCI/ADR-RES ovarian
[10] = test system: MDA-MB-231 breast

Row | SMILES | TGI [1] [µM] | TGI [2] [µM] | TGI [3] [µM] | TGI [4] [µM] | TGI [5] [µM] | TGI [6] [µM] | TGI [7] [µM] | TGI [8] [µM] | GI50 [1] [µM] | GI50 [8] [µM] | GI50 [2] [µM] | GI50 [3] [µM] | GI50 [9] [µM] | TGI [9] [µM] | GI50 [4] [µM] | GI50 [6] [µM] | GI50 [10] [µM] | TGI [10] [µM] | GI50 [7] [µM] | GI50 [5] [µM]
1 | CN(C)CCC[N+]1=Nc2cccc3cccc(c23)N1 | 92.6 | > 100 | > 100 | > 100 | > 100 | > 100 | > 100 |  |  |  |  |  |  |  |  |  |  |  |  | 
2 | N#CC(/C(CCCC(=O)Nc1cccc([N+](=O)[O-])c1)=N\NC(=O)c1c(O)ccc2ccccc12)c1nc2ccccc2s1 (stereo unspecified) | > 100 | > 100 | > 100 | > 100 | > 100 | > 100 | > 100 | > 100 |  |  |  |  |  |  |  |  |  |  |  | 
3 | CCOC(=O)C1C(=O)CC(=O)C2CCCCC21 (stereo unspecified) | > 100 | > 100 | > 100 | > 100 | > 100 | > 100 | > 100 | > 100 |  |  |  |  |  |  |  |  |  |  |  | 
4 | CC1(C)C(=O)/C=C\C(=O)C(C)(C)C(=O)/C=C\C(=O)C(C)(C)C2=CC=C(O2)C(C)(C)C(=O)/C=C\C1=O | 30.9 | 11.6 | 22.9 | 49.7 | 16.6 | 37.1 | 30.6 | 4.73 |  |  |  |  |  |  |  |  |  |  |  | 
5 | C(=N\Nc1ccc2ccccc2n1)/c1ccccn1 | 15.4 | > 100 | > 40.5 | > 100 |  | > 100 | > 100 | > 52 | 0.561 | 0.443 | 0.463 | 0.537 | 0.345 | 10.6 | 0.563 | 0.596 | 0.695 | > 100 | 0.921 | 
6 | CN(C)N=Nc1ccc(S(N)(=O)=O)cc1 | > 100 | > 100 | > 100 | > 100 | > 100 | > 100 | > 100 |  |  |  |  |  |  |  |  |  |  |  |  | 
7 | COc1ccc(-c2c(-c3ccc(C#N)c(F)c3)nc(N3CCC(N)CC3)n(C)c2=O)cc1F |  | > 100 | 45.8 | > 100 | 29.2 | 44.2 | > 100 | 23.6 |  | 7.41 | 33.6 | 15.8 | 21.6 | 63.1 | 29.8 | 14.4 | 12.5 | 26.7 | 31.6 | 13.6
8 | C[C@]12CCC(=O)C[C@@H]1CC[C@@H]1[C@@H]2CC[C@]2(C)[C@@H](OC(=O)N(CCCl)N=O)CC[C@@H]12 | 4.98 | 24 | 13.6 | 11.6 | 8.58 | 22.4 | 17.8 |  | 1.82 |  | 1.36 | 1.41 | 1.22 | 28 | 0.353 | 6.31 | 9.48 | 24.4 | 0.411 | 1.14
9 | CC12CCc3ccccc3C1=NNC(=O)C2 (stereo unspecified) | > 100 | > 100 | > 100 | > 100 | > 100 | > 100 | > 100 | > 100 |  |  |  |  |  |  |  |  |  |  |  | 
10 | S=C(SSC(=S)N1CCCCC1)N1CCCCC1 |  | 60.9 | > 100 | > 100 | 82.9 | 27.9 | > 100 | 35.8 |  | 14.2 | 16.2 | 48.4 | 15.7 | 40.9 | 24.1 | 14.6 | 15.2 | 41.2 | 51 | 23.6
11 | N#CC1=C(N)OC2=C(CCOc3c2ccc2ccccc32)C1c1ccc(Br)cc1 (stereo unspecified) |  | > 100 | > 100 | > 100 |  | > 100 | > 100 | 80.9 |  | 22.8 | 77.5 | 28.8 | 33.4 | > 100 | 47.1 | 96.3 |  |  | 77.7 | 
12 | CC(=O)CC(=O)Nc1ccccc1C(F)(F)F | > 100 | > 100 | > 100 | > 100 |  | > 100 | > 100 | > 100 |  |  |  |  |  |  |  |  |  |  |  | 
13 | Cc1ccc(-c2nc3sc(C)cn3c2/C=C2\C(=O)Nc3ccc(Cl)cc32)cc1 | 36 | 33.5 | 25.1 | 27.8 | 44.9 | 38.5 | 27.7 |  | 16.3 |  | 15.2 | 7.05 | 15.7 | 34.2 | 14.1 | 18.8 | 4.35 | 20.1 | 10.6 | 16.6
14 | CC(=O)Nc1ccc(/C=c2\sc3nnc(-c4cccnc4)n3c2=O)cc1 | > 100 | 32.1 | 66 | > 100 | 49 | 67.1 | 77.2 | 37.2 |  |  |  |  |  |  |  |  |  |  |  | 
15 | CN1CCN(c2nc(N)c(Br)c(Cl)n2)CC1 |  | > 100 | > 100 | > 100 | > 100 | > 100 | > 100 | > 100 |  |  |  |  |  |  |  |  |  |  |  | 
16 | O=C(CCc1ccccc1)CC1OC(=O)C(Cl)=C1Cl (stereo unspecified) | 66.2 | 41 | > 100 | > 100 | 41.1 | 35 | 38 | 59.8 |  |  |  |  |  |  |  |  |  |  |  | 
17 | Cc1[nH]c2cc([N+](=O)[O-])ccc2c1[N+](=O)[O-] | 50.4 | 79.8 |  | 69.6 | 43.9 | 79 | 56.5 | 54.1 |  |  |  |  |  |  |  |  |  |  |  | 
18 | O=C(NCCNCCO)c1ccc(Nc2nc3ccccc3c3occc23)cc1 | 39.4 | 16.2 | 36.5 | 30.1 |  | 23.2 | 49.5 |  | 18.3 |  | 2.61 | 15.4 | 24.9 | 61.8 | 15.3 | 10.9 | 3.12 | 16.2 | 18.5 | 
19 | CCN(CC)c1ccc(C2N3CCCCC3[C@@H]3c4[nH]c5ccccc5c4CCN23)cc1 (stereo partly specified) | 28.2 | > 100 | > 100 | > 100 | 77.8 | > 100 | > 100 | 44.1 |  |  |  |  |  |  |  |  |  |  |  | 
